Consider 34 molecules from patent publication US12208088B2 (Genentech, Inc., priority 2018, dated 2025).

SMILES strings stand for the structures.

This test has as its target HPK1 (Homo sapiens (Human), UniProt Q92918). The test can be described thus: HPK1 Lantha binding assay ("Lanth"). The note with it: binding assays; Morrison Ki fit. The essentials:
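Ki values are from Morrison-equation fitting of 665/615 nm TR-FRET signals, taking enzyme level, tracer level and tracer Kd into account. The assay mix held HPK1 (2 nM), Eu-anti-GST antibody (2 nM) and Tracer222 (15 nM). Incubations were two 1 h steps at 23 °C, on 5-fold serial compound dilutions.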

HPK1, sequence (Q92918 1-346 limits assumed): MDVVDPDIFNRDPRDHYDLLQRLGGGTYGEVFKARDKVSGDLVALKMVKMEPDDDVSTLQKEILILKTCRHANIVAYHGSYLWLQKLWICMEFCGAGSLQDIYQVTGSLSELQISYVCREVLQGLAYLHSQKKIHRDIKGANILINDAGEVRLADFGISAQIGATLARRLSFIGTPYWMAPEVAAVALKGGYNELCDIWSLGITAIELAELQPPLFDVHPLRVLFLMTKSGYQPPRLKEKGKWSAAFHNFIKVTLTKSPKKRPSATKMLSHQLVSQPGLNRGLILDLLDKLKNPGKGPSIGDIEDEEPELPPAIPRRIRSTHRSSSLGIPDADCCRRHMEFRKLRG

Take `Clc1c(-c2cccc3[nH]ncc23)cnc2c1C1(CC=CC1)CN2` [Compound 286, 4-Chloro-5′-(1H-indazol-4-yl)-1′,2′-dihydrospiro[cyclopentane-1,3′-pyrrolo[2,3-b]pyridin]-3-ene]: the inhibition constant Ki (in general, a measure of affinity in units of concentration, obtained from inhibition or displacement) was 0.12 µM. Then `Clc1c(-c2ccc3[nH]ccc3c2)cnc2c1C1(CC=CC1)CN2` [Compound 287, 4-Chloro-5′-(1H-indol-5-yl)-1′,2′-dihydrospiro[cyclopentane-1,3′-pyrrolo[2,3-b]pyridin]-3-ene], with 0.638 µM; and `CN(C)C(=O)c1nc(-c2cnc3c(c2Cl)[C@]2(CC[C@](C)(C#N)C2)CN3)ccc1N` [Compound 288, 3-Amino-6-((1R,3 S)-4′-chloro-3-cyano-3-methyl-1′,2′-dihydrospiro[cyclopentane-1,3′-pyrrolo[2,3-b]pyridin]-5′-yl)-N,N-dimethylpicolinamide], with 0.016 µM; and `Nc1cc(-c2cnc3c(c2)C2(CC2)CN3)nc(N2CCCOC2=O)n1` [Compound 289, 3-(4-amino-6-(1′,2′-dihydrospiro[cyclopropane-1,3′-pyrrolo[2,3-b]pyridin]-5′-yl)pyrimidin-2-yl)-1,3-oxazinan-2-one], with 0.215 µM. In turn, `Nc1ccc(-c2cnc3c(c2)C2(CC2)CN3)nc1C(=O)N1CC[C@H](O)C1` [Compound 290a, (S)-(3-amino-6-(1′,2′-dihydrospiro[cyclopropane-1,3′-pyrrolo[2,3-b]pyridin]-5′-yl)pyridin-2-yl)(3-hydroxypyrrolidin-1-yl)methanone] gave an inhibition constant (Ki) of 0.559 µM. Then `Nc1ccc(-c2cnc3c(c2)C2(CC2)CN3)nc1C(=O)N1CC[C@@H](O)C1` [Compound 290b, (R)-(3-amino-6-(1′,2′-dihydrospiro[cyclopropane-1,3′-pyrrolo[2,3-b]pyridin]-5′-yl)pyridin-2-yl)(3-hydroxypyrrolidin-1-yl)methanone], with 0.895 µM; and `CN(C)C(=O)CNc1ccc(-c2cnc3c(c2)C2(CC2)CN3)cn1` [Compound 291, 2-((5-(1′,2′-dihydrospiro[cyclopropane-1,3′-pyrrolo[2,3-b]pyridin]-5′-yl)pyridin-2-yl)amino)-N,N-dimethylacetamide], with 0.236 µM; and `Nc1cc(-c2cnc3c(c2)C2(CC2)CN3)nc(N2CCOC2=O)c1` [Compound 292, 3-(4-amino-6-(1′,2′-dihydrospiro[cyclopropane-1,3′-pyrrolo[2,3-b]pyridin]-5′-yl)pyridin-2-yl)oxazolidin-2-one], with 0.127 µM. Next, `Nc1cc(-c2cnc3c(c2)C2(CC2)CN3)nc(N2CCCOC2=O)c1` [Compound 293, 3-(4-amino-6-(1′,2′-dihydrospiro[cyclopropane-1,3′-pyrrolo[2,3-b]pyridin]-5′-yl)pyridin-2-yl)-1,3-oxazinan-2-one]: 0.0474 µM; `CN(C)C(=O)c1cc(N)cc(-c2cnc3c(c2)C2(CC2)CN3)n1` [Compound 294, 4-amino-6-(1′,2′-dihydrospiro[cyclopropane-1,3′-pyrrolo[2,3-b]pyridin]-5′-yl)-N,N-dimethylpicolinamide]: 0.309 µM.

In turn, `Nc1cc(-c2cnc3c(c2)C2(CC2)CN3)nc(-c2ncccn2)c1` [Compound 295, 2-(1′,2′-dihydrospiro[cyclopropane-1,3′-pyrrolo[2,3-b]pyridin]-5′-yl)-6-(pyrimidin-2-yl)pyridin-4-amine] yielded a Ki of 0.387 µM.

Consider `Cn1cccc(-c2cc(-c3cnc4c(c3Cl)C3(CC3)CN4)cc(N)n2)c1=O` [Compound 296, 6-amino-4-(4′-chloro-1′,2′-dihydrospiro[cyclopropane-1,3′-pyrrolo[2,3-b]pyridin]-5′-yl)-1′-methyl-[2,3′-bipyridin]-2′(1′H)-one], for which the Ki is 0.0114 µM. This Ki is about 34-fold lower than that of the molecule before.

The molecule `CN(C)C(=O)c1cccc2c(-c3cnc4c(c3)C3(CC3)CN4)c[nH]c12` [Compound 297, 3-(1′,2′-Dihydrospiro[cyclopropane-1,3′-pyrrolo[2,3-b]pyridin]-5′-yl)-N,N-dimethyl-1H-indole-7-carboxamide] returned a Ki of 0.0576 µM. `CN(C)C(=O)c1cccc2c(-c3cnc4c(c3Cl)C3(CC3)CN4)c[nH]c12` [Compound 298, 3-(4′-Chloro-1′,2′-dihydrospiro[cyclopropane-1,3′-pyrrolo[2,3-b]pyridin]-5′-yl)-N,N-dimethyl-1H-indole-7-carboxamide] showed an inhibitory constant (Ki) of 0.0523 µM. In the case of `O=C1CCCCN1c1cccc2c(-c3cnc4c(c3)C3(CC3)CN4)c[nH]c12` [Compound 299, 1-(3-(1′,2′-Dihydrospiro[cyclopropane-1,3′-pyrrolo[2,3-b]pyridin]-5′-yl)-1H-indol-7-yl)piperidin-2-one], the Ki came to 0.0889 µM. In turn, `O=C1CCCCN1c1cccc2c(-c3cnc4c(c3Cl)C3(CCC(O)C3)CN4)c[nH]c12` (stereo not shown) [Compound 300, 1-(3-(4′-Chloro-3-hydroxy-1′,2′-dihydrospiro[cyclopentane-1,3′-pyrrolo[2,3-b]pyridin]-5′-yl)-1H-indol-7-yl)piperidin-2-one] yielded a Ki of 0.0506 µM.

`CN(C)C(=O)Cc1cccc2c(-c3cnc4c(c3Cl)C3(CC3)CN4)c[nH]c12` [Compound 301, 2-(3-(4′-Chloro-1′,2′-dihydrospiro[cyclopropane-1,3′-pyrrolo[2,3-b]pyridin]-5′-yl)-1H-indol-7-yl)-N,N-dimethylacetamide] displayed a Ki of 0.0682 µM. Then `O=C1COCCN1c1cccc2c(-c3cnc4c(c3Cl)C3(CC3)CN4)c[nH]c12` [Compound 302, 4-(3-(4′-Chloro-1′,2′-dihydrospiro[cyclopropane-1,3′-pyrrolo[2,3-b]pyridin]-5′-yl)-1H-indol-7-yl)morpholin-3-one], with 0.0463 µM. Turning to `O=C1CNCCN1c1cccc2c(-c3cnc4c(c3)C3(CC3)CN4)c[nH]c12` [Compound 303, 1-(3-(1′,2′-Dihydrospiro[cyclopropane-1,3′-pyrrolo[2,3-b]pyridin]-5′-yl)-1H-indol-7-yl)piperazin-2-one], the affinity, expressed as Ki, was 0.0326 µM. Then `N#Cc1ccc2[nH]cc(-c3cnc4c(c3)C3(CC3)CN4)c2c1` [Compound 307, 3-(1′,2′-Dihydrospiro[cyclopropane-1,3′-pyrrolo[2,3-b]pyridin]-5′-yl)-1H-indole-5-carbonitrile], with 0.0172 µM; and `Cc1n[nH]cc1-c1cnc2c(c1Cl)C1(CC=CC1)CN2` [Compound 308, 4′-Chloro-5′-(3-methyl-1H-pyrazol-4-yl)-1′,2′-dihydrospiro[cyclopentane-1,3′-pyrrolo[2,3-b]pyridin]-3-ene], with 0.186 µM. In turn, `COc1c(-c2ccc(N)c(C(=O)N(C)C)n2)cnc2c1C1(CC1)CN2` [Compound 309, 3-Amino-6-(4′-methoxy-1′,2′-dihydrospiro[cyclopropane-1,3′-pyrrolo[2,3-b]pyridin]-5′-yl)-N,N-dimethylpicolinamide] displayed a Ki of 0.029 µM. Take `CN1CCN(c2cc(Cl)cc3c(-c4cnc5c(c4)C4(CC4)CN5)c[nH]c23)C(=O)C1` [Compound 310, 1-(5-Chloro-3-(1′,2′-dihydrospiro[cyclopropane-1,3′-pyrrolo[2,3-b]pyridin]-5′-yl)-1H-indol-7-yl)-4-methylpiperazin-2-one]: affinity was put at a Ki of 0.0106 µM. Molecule `NC(=O)CCn1cc(-c2cnc3c(c2Cl)C2(CC=CC2)CN3)cn1` [Compound 311, 3-(4-(4′-Chloro-1′,2′-dihydrospiro[cyclopentane-1,3′-pyrrolo[2,3-b]pyridin]-3-en-5′-yl)-1H-pyrazol-1-yl)propanamide] yielded a Ki of 0.161 µM.

In the case of `Clc1ccc2[nH]cc(-c3cnc4c(c3)C3(CC3)CN4)c2c1` [Compound 312, 5′-(5-Chloro-1H-indol-3-yl)-1′,2′-dihydrospiro[cyclopropane-1,3′-pyrrolo[2,3-b]pyridine]], the affinity corresponds to a Ki of 0.0459 µM. Then `Cc1ccc2[nH]cc(-c3cnc4c(c3)C3(CC3)CN4)c2c1` [Compound 313, 5′-(5-Methyl-1H-indol-3-yl)-1′,2′-dihydrospiro[cyclopropane-1,3′-pyrrolo[2,3-b]pyridine]], with 0.0731 µM; and `c1ccc2c(-c3cnc4c(c3)C3(CC3)CN4)c[nH]c2c1` [Compound 314, 5′-(1H-Indol-3-yl)-1′,2′-dihydrospiro[cyclopropane-1,3′-pyrrolo[2,3-b]pyridine]], with 0.125 µM; and `COc1c(-c2c[nH]c3ccc(C#N)cc23)cnc2c1C1(CC1)CN2` [Compound 315, 3-(4′-Methoxy-1′,2′-dihydrospiro[cyclopropane-1,3′-pyrrolo[2,3-b]pyridin]-5′-yl)-1H-indole-5-carbonitrile], with 0.0344 µM. `Fc1cccc2[nH]cc(-c3cnc4c(c3)C3(CC3)CN4)c12` [Compound 316, 5′-(4-Fluoro-1H-indol-3-yl)-1′,2′-dihydrospiro[cyclopropane-1,3′-pyrrolo[2,3-b]pyridine]] displayed a Ki of 0.492 µM. For the molecule `OCCn1cc(-c2cnc3c(c2Cl)C2(CC=CC2)CN3)cn1` [Compound 317, 2-(4-(4′-Chloro-1′,2′-dihydrospiro[cyclopentane-1,3′-pyrrolo[2,3-b]pyridin]-3-en-5′-yl)-1H-pyrazol-1-yl)ethan-1-ol], the Ki turned out to be 0.209 µM.

Molecule `NC(=O)Cn1cc(-c2cnc3c(c2Cl)C2(CC=CC2)CN3)cn1` [Compound 318, 2-(4-(4′-Chloro-1′,2′-dihydrospiro[cyclopentane-1,3′-pyrrolo[2,3-b]pyridin]-3-en-5′-yl)-1H-pyrazol-1-yl)acetamide] gave a Ki of 0.236 µM. This Ki and that of the molecule before are within 1.5-fold of each other. Next, `CN(C)C(=O)Cn1cc(-c2cnc3c(c2Cl)C2(CC=CC2)CN3)cn1` [Compound 319, 2-(4-(4′-Chloro-1′,2′-dihydrospiro[cyclopentane-1,3′-pyrrolo[2,3-b]pyridin]-3-en-5′-yl)-1H-pyrazol-1-yl)-N,N-dimethylacetamide]: 0.306 µM; `CC(C)(O)Cn1cc(-c2cnc3c(c2Cl)C2(CC=CC2)CN3)cn1` [Compound 320, 1-(4-(4′-Chloro-1′,2′-dihydrospiro[cyclopentane-1,3′-pyrrolo[2,3-b]pyridin]-3-en-5′-yl)-1H-pyrazol-1-yl)-2-methylpropan-2-ol]: 0.337 µM.

On to `Cc1[nH]ncc1-c1cnc2c(c1)C1(CC1)CN2` [Compound 321, 5′-(5-Methyl-1H-pyrazol-4-yl)-1′,2′-dihydrospiro[cyclopropane-1,3′-pyrrolo[2,3-b]pyridine]], for which the Ki came to 0.321 µM. This Ki and that of the molecule before are within 1.5-fold of each other.
